Experimental data as given in the NIST ThermoML archive (doi:10.1016/j.tca.2013.05.022).

Tests used:
[1] = relative permittivity at zero frequency (dimensionless); details: Liquid, Parallel plate capacitor
[2] = relative permittivity at zero frequency (dimensionless); φn = volume fraction of the nth substance listed; details: Liquid, Parallel plate capacitor

CCCO [propan-1-ol]
[1], 101 kPa
Details | relative permittivity at zero frequency
303 K | 19.95
313 K | 18.65
323 K | 17.82

CCO [ethanol] + Cc1ccccc1
[2], 101 kPa, φ1 = 1
Details | relative permittivity at zero frequency
303 K | 24.26
313 K | 23.85
323 K | 23.25

CCO [ethanol]
[1], 101 kPa
Details | relative permittivity at zero frequency
303 K | 24.26
313 K | 23.85
323 K | 23.25

CC(C)O [propan-2-ol] + Cc1ccccc1
relative permittivity at zero frequency, [2], 307116 kPa
Details | φ1 = 0.1 | φ1 = 0.2 | φ1 = 0.3 | φ1 = 0.4 | φ1 = 0.5 | φ1 = 0.6 | φ1 = 0.7 | φ1 = 0.8 | φ1 = 0.9 | φ1 = 1
303 K | 3.55 | 4.83 | 5.98 | 6.85 | 8.06 | 10.1 | 12.09 | 14.27 | 16.36 | 18.25
313 K | 3.12 | 4.48 | 5.55 | 6.45 | 7.75 | 9.73 | 11.75 | 13.65 | 15.98 | 17.75
323 K | 3 | 4.12 | 5.13 | 6.15 | 7.46 | 9.45 | 11.24 | 13.34 | 15.35 | 16.57

Cc1ccccc1 [toluene] + CO
relative permittivity at zero frequency, [2], 101 kPa
Details | φ2 = 0.1 | φ2 = 0.2 | φ2 = 0.3 | φ2 = 0.4 | φ2 = 0.5 | φ2 = 0.6 | φ2 = 0.7 | φ2 = 0.8 | φ2 = 0.9
303 K | 5.82 | 7.85 | 10.56 | 12.89 | 15.86 | 19.25 | 22.54 | 25.91 | 29.34
313 K | 5.03 | 7.57 | 10.29 | 12.66 | 15.11 | 18.71 | 22.17 | 25.38 | 28.83
323 K | 4.87 | 6.92 | 9.82 | 12.14 | 14.72 | 18.27 | 21.67 | 24.95 | 28.42

CCCO [propan-1-ol] + Cc1ccccc1
[2], 101 kPa, φ1 = 1
Details | relative permittivity at zero frequency
303 K | 19.95
313 K | 18.65
323 K | 17.82

CO [methanol]
[1], 101 kPa
Details | relative permittivity at zero frequency
303 K | 33.19
313 K | 32.35
323 K | 31.98

CC(C)O [propan-2-ol]
[1], 307116 kPa
Details | relative permittivity at zero frequency
303 K | 18.25
313 K | 17.75
323 K | 16.57

Cc1ccccc1 [toluene] + CCCO
relative permittivity at zero frequency, [2], 101 kPa
Details | φ2 = 0.1 | φ2 = 0.2 | φ2 = 0.3 | φ2 = 0.4 | φ2 = 0.5 | φ2 = 0.6 | φ2 = 0.7 | φ2 = 0.8 | φ2 = 0.9
303 K | 3.28 | 4.67 | 6.29 | 7.59 | 8.79 | 11.44 | 13.76 | 15.84 | 18.08
313 K | 3.17 | 4.59 | 6.18 | 7.23 | 8.17 | 11.18 | 13.37 | 15.59 | 17.87
323 K | 2.98 | 4.42 | 5.95 | 6.89 | 7.88 | 10.89 | 13.18 | 15.29 | 17.24

CO [methanol] + Cc1ccccc1
[2], 101 kPa, φ1 = 1
Details | relative permittivity at zero frequency
303 K | 33.19
313 K | 32.35
323 K | 31.98

Cc1ccccc1 [toluene] + CCO
relative permittivity at zero frequency, [2], 101 kPa
Details | φ2 = 0.1 | φ2 = 0.2 | φ2 = 0.3 | φ2 = 0.4 | φ2 = 0.5 | φ2 = 0.6 | φ2 = 0.7 | φ2 = 0.8 | φ2 = 0.9
303 K | 3.97 | 5.64 | 7.43 | 8.29 | 10.1 | 12.53 | 15.27 | 18.07 | 21.14
313 K | 3.42 | 5.27 | 6.34 | 7.98 | 9.7 | 12.26 | 14.78 | 17.72 | 20.78
323 K | 2.95 | 4.91 | 6.14 | 7.87 | 9.2 | 12.07 | 14.54 | 17.28 | 20.14
